Values after ≈ are worked out from the molar mass of the structure shown.
How the values were obtained:
Candida albicans = experiment: Antimycotic in-vitro activity, serial dilution test (MIC); format: cell-based; details: meat extract-glucose broth, 20°C, 24 to 96 hours, inoculum 5 x 10^4 germs/ml; for MIC: Candida albicans, read-out: MHK-Werte in γ/ml Nährmedium, Candida albicans
Protocol: (§1) Die in-vitro-Prüfungen wurden im Reihenverdünnungstest mit Keiminokula von durchschnittlich 5 x 10^4 Keimen/ml Substrat durchgeführt. Als Nährmedium dienten • a) für Dermatophyten und Schimmelpilze: Sabourand's milieu d'epreuve • b) für Hefen: Fleischextrakt-Traubenzucker-Bouillon.
(§2) Die Bebrütungstemperatur betrug 20°C, die Bebrütungsdauer lag bei 24 bis 96 Stunden bei Hefen und 96 Stunden bei Dermatophyten und Schimmelpilzen.

Microsporum canis = experiment: as above; format: cell-based; details: Sabouraud medium, 20°C, inoculum 5 x 10^4 germs/ml; for MHK-Werte in γ/ml Nährmedium, Microsporum canis: 96 hours; for MIC: Microsporum canis, 96 h, read-out: MHK-Werte in γ/ml Nährmedium, Microsporum canis
Protocol: as §1, §2

Torulopsis glabrata = experiment: as above; format: cell-based; details: meat extract-glucose broth, 20°C, 24 to 96 hours, inoculum 5 x 10^4 germs/ml; for MIC: Nakaseomyces glabratus, read-out: MHK-Werte in γ/ml Nährmedium, Torulopsis glabrata
Protocol: as §1, §2

Trichophyton mentagr. = experiment: as above; format: cell-based, Trichophyton mentagrophytes; details: Sabouraud medium, 20°C, 96 hours, inoculum 5 x 10^4 germs/ml; for MIC: Trichophyton, read-out: MHK-Werte in γ/ml Nährmedium, Trichophyton mentagr.
Protocol: as §1, §2

Aspergillus fumig. = experiment: as above; format: cell-based, Aspergillus fumigatus; details: Sabouraud medium, 20°C, inoculum 5 x 10^4 germs/ml; for MIC: Aspergillus, 96 h, read-out: MHK-Werte in γ/ml Nährmedium, Aspergillus fumig.
Protocol: as §1, §2

[1] = test system: Dermatophyten und Schimmelpilze, Hefen; experiment: Antimycotic in-vitro activity, serial dilution test, overall comparison with known compounds; format: cell-based; details: compared with known compounds (A),(B),(C) and (D)
Protocol: as §1, §2

Candida-Zellen = experiment: Antimycotic in-vivo activity (oral) in mouse candidosis; design: species or system Mäuse vom Typ SPF-CF1; key: +++++: sehr gute Wirkung = 90 % Ueberlebende am 6.Tag p.i.; ++++: gute Wirkung = 80 % Ueberlebende am 6.Tag p.i.; +++: Wirkung = 60 % Ueberlebende am 6.Tag p.i.; ++: schwache Wirkung = 40 % Ueberlebende am 6.Tag p.i.; +: Spur Wirkung; k.W.: keine Wirkung
Protocol: Mäuse vom Typ SPF-CF1 wurden intravenös mit 1 - 2 x 10^6 logarithmisch wachsenden Candida-Zellen, die in physiologischer Kochsalzlösung suspendiert werden, infiziert. Eine Stunde vor und sieben Stunden nach der Infektion werden die Tiere mit jeweils 50 - 100 mg/kg Körpergewicht der Präparate oral behandelt.
Uhbehandelte Tiere starben 3 bis 6 Tage post infektionem. Die Ueberlebensrate am 6.Tag post infektionem betrug bei uhbehandelten Kontrolltieren etwa 5 %.
• +++++ = sehr gute Wirkung = 90 % Ueberlebende am 6.Tag p.i. • ++++ = gute Wirkung = 80 % Ueberlebende am 6.Tag p.i. • +++ = Wirkung = 60 % Ueberlebende am 6.Tag p.i. • ++ = schwache Wirkung = 40 % Ueberlebende am 6.Tag p.i. • + = Spur Wirkung = k.W. = keine Wirkung

[2] = test system: Trichophyton mentagrophytes; experiment: Antimycotic in-vivo activity (local) in experimental guinea pig trichophytosis; design: species or system Meerschweinchen; key to Wirkung: +++++: sehr gute Wirkung = keine Infektionszeichen am 12.-15.Tag p.i.; ++++: gute Wirkung = geringe Rötung, vereinzelt Schuppen; +++: Wirkung = Rötung, Schuppung, ohne Haarausfall; ++: schwache Wirkung = Rötung, Schuppung, Haarausfall; +: Spur Wirkung = flächiger Haarausfall, entzündliche Hautreaktion; details: for Wirkungen: local treatment; for Wirkung: local treatment 1x daily from day 3 p.i. with a 15% solution in dimethylsulfoxide : glycerol = 1 : 4, signs of infection day 12-15 p.i.
[3] = mice infected i.v. with 1 - 2 x 10^6 Candida cells, oral 50 - 100 mg/kg one hour before and seven hours after infection, survivors on day 6 p.i.
[4] = mouse candidosis, oral, compared with known compounds (A), (B), (C) and (D)

Row | Structure (SMILES) | MHK-Werte in γ/ml Nährmedium, Candida albicans (Candida albicans) [µg/mL] | MHK-Werte in γ/ml Nährmedium, Microsporum canis (Microsporum canis) [µg/mL] | MHK-Werte in γ/ml Nährmedium, Torulopsis glabrata (Torulopsis glabrata) [µg/mL] | MIC (Trichophyton mentagr.) [µg/mL] | MIC (Aspergillus fumig.) [µg/mL] | antimykotische Wirkung [1] | Wirkung (Candida-Zellen; [3]) | Wirkung (Candida-Zellen; [4]) | Wirkungen [2] | Wirkung [2] | MHK-Werte in γ/ml Nährmedium, Trichophyton mentagr. (Trichophyton mentagr.) [µg/mL] | MHK-Werte in γ/ml Nährmedium, Aspergillus fumig. (Aspergillus fumig.; 96 hours) [µg/mL] | MIC (Candida albicans) [µg/mL] | MIC (Microsporum canis) [µg/mL] | MIC (Torulopsis glabrata) [µg/mL]
1 | CCC(C(O)c1ccc(Oc2ccc(Cl)cc2)cc1)n1cncn1 (single isomer, unassigned) [Beispiel 29] | 8 | 8 | 8 | < 1 | 32 (≈ 93.1 µM) | bessere antimykotische Wirkung | +++++ (sehr gute Wirkung = 90 % Ueberlebende am 6.Tag p.i.) | bessere Wirkung | bestimmte Wirkungen | +++ | – | – | – | – | –
2 | CCC(C(O)c1ccc(Oc2ccc(Cl)cc2)cc1)n1cncn1 (single isomer, unassigned) [Beispiel 30] | <1 | 32 | <1 | – | – | bessere antimykotische Wirkung | +++ (Wirkung = 60 % Ueberlebende am 6.Tag p.i.) | bessere Wirkung | bestimmte Wirkungen | ++ | <1 | >64 | – | – | –
3 | CCCC(C(O)c1ccc(Oc2ccc(Cl)cc2)cc1)n1cncn1 (single isomer, unassigned) [Beispiel 32] | – | – | – | – | – | – | +++++ (sehr gute Wirkung = 90 % Ueberlebende am 6.Tag p.i.) | bessere Wirkung | bestimmte Wirkungen | +++ | – | – | – | – | –
4 | CCCCC(C(O)c1ccc(Oc2ccc(Cl)cc2)cc1)n1cncn1 (single isomer, unassigned) [Beispiel 33] | – | 8 | <1 | < 1 | 64 (≈ 172 µM) | bessere antimykotische Wirkung | +++++ (sehr gute Wirkung = 90 % Ueberlebende am 6.Tag p.i.) | bessere Wirkung | – | – | – | – | < 1 | – | –
5 | CCCC(C(=O)c1ccc(Oc2ccc(Cl)cc2)cc1)n1cncn1 (stereo not drawn) [Beispiel 6] | – | – | – | – | – | – | +++ (Wirkung = 60 % Ueberlebende am 6.Tag p.i.) | bessere Wirkung | bestimmte Wirkungen | ++++ | – | – | – | – | –
6 | CC(C(=O)c1ccc(Oc2ccc(Cl)cc2)cc1)n1cncn1 (stereo not drawn) [Beispiel 9] | – | – | – | 2 (≈ 6.1 µM) | 8 (≈ 24.4 µM) | bessere antimykotische Wirkung | +++ (Wirkung = 60 % Ueberlebende am 6.Tag p.i.) | bessere Wirkung | – | – | – | – | 8 (≈ 24.4 µM) | 4 (≈ 12.2 µM) | 16 (≈ 48.8 µM)
7 | CCC(C(=O)c1ccc(Oc2ccc(Cl)cc2)cc1)n1ccnc1 (stereo not drawn) [Beispiel 24] | – | – | – | 4 (≈ 11.7 µM) | 8 (≈ 23.5 µM) | bessere antimykotische Wirkung | +++ (Wirkung = 60 % Ueberlebende am 6.Tag p.i.) | bessere Wirkung | bestimmte Wirkungen | +++ | – | – | 4 (≈ 11.7 µM) | 4 (≈ 11.7 µM) | 8 (≈ 23.5 µM)
8 | CC(C(O)c1ccc(Oc2ccc(Cl)cc2)cc1)n1cncn1 (stereo not drawn) [Beispiel 35] | – | – | – | < 1 | 32 (≈ 97 µM) | bessere antimykotische Wirkung | +++ (Wirkung = 60 % Ueberlebende am 6.Tag p.i.) | bessere Wirkung | bestimmte Wirkungen | +++ | – | – | < 1 | 8 (≈ 24.3 µM) | 2 (≈ 6.06 µM)
9 | CCCC(n1cncn1)C(C)(O)c1ccc(Oc2ccc(Cl)cc2)cc1 (stereo not drawn) [Beispiel 43] | – | – | – | < 1 | > 64 | bessere antimykotische Wirkung | +++++ (sehr gute Wirkung = 90 % Ueberlebende am 6.Tag p.i.) | bessere Wirkung | bestimmte Wirkungen | +++ | – | – | < 1 | 16 (≈ 43 µM) | 4 (≈ 10.8 µM)
10 | CC(n1cncn1)C(O)(Cc1ccc(Cl)cc1)c1ccc(Oc2ccc(Cl)cc2)cc1 (stereo not drawn) [Beispiel 45] | – | – | – | 2 (≈ 4.4 µM) | > 64 | bessere antimykotische Wirkung | + | bessere Wirkung | bestimmte Wirkungen | + | – | – | < 1 | 32 (≈ 70.4 µM) | < 1
11 | C=CCC(O)(c1ccc(Oc2ccc(Cl)cc2)cc1)C(CCC)n1cncn1 (stereo not drawn) [Beispiel 46] | – | – | – | < 1 | 32 (≈ 80.4 µM) | bessere antimykotische Wirkung | ++++ (gute Wirkung = 80 % Ueberlebende am 6.Tag p.i.) | bessere Wirkung | – | + | – | – | < 1 | 8 (≈ 20.1 µM) | 8 (≈ 20.1 µM)
12 | Cc1cccc(Cl)c1Oc1ccc(C(O)Cn2cncn2)cc1 (stereo not drawn) [Beispiel 47] | – | – | – | < 1 | 8 (≈ 24.3 µM) | bessere antimykotische Wirkung | ++++ (gute Wirkung = 80 % Ueberlebende am 6.Tag p.i.) | bessere Wirkung | bestimmte Wirkungen | ++++ | – | – | < 1 | 8 (≈ 24.3 µM) | < 1
13 | CCC(C(O)c1ccc(Oc2ccc(Cl)cc2)cc1)n1ccnc1 (stereo not drawn) [Beispiel 70] | – | – | – | 2 (≈ 5.83 µM) | 16 (≈ 46.7 µM) | bessere antimykotische Wirkung | + | bessere Wirkung | – | – | – | – | < 1 | 8 (≈ 23.3 µM) | < 1
14 | CC(C)C(C(O)c1ccc(Oc2ccc(Cl)cc2)cc1)n1ccnc1 (stereo not drawn) [Beispiel 73] | – | – | – | 4 (≈ 11.2 µM) | 64 (≈ 179 µM) | bessere antimykotische Wirkung | – | – | – | – | – | – | 4 (≈ 11.2 µM) | 16 (≈ 44.8 µM) | 2 (≈ 5.6 µM)
15 | CCCC(C(O)c1ccc(Oc2ccc(Cl)cc2)cc1)n1ccnc1 (stereo not drawn) [Beispiel 74] | – | – | – | < 1 | 64 (≈ 179 µM) | bessere antimykotische Wirkung | – | – | – | – | – | – | < 1 | 8 (≈ 22.4 µM) | < 1
